In the NIST ThermoML archive (doi:10.1021/je400968v):

What was measured:
[1] = mn = molality of the nth substance listed, in mol/kg; settings: 101 kPa, Liquid; for viscosity: Capillary tube (Ostwald / Ubbelohde) method; for mass density: Vibrating tube method
[2] = 101 kPa, Liquid; for viscosity: Capillary tube (Ostwald / Ubbelohde) method; for mass density: Vibrating tube method

Cc1c(N)cccc1N [2,6-diaminotoluene] + CCCCO
[1]
Settings	mass density, 293.15 K [kg/m3]	mass density, 303.15 K [kg/m3]	mass density, 313.15 K [kg/m3]	mass density, 323.15 K [kg/m3]	mass density, 333.15 K [kg/m3]	viscosity, 293.15 K [mPa·s]	viscosity, 303.15 K [mPa·s]	viscosity, 313.15 K [mPa·s]	viscosity, 323.15 K [mPa·s]	viscosity, 333.15 K [mPa·s]
m1 = 0.05	811.28	803.61	795.81	787.85	779.68	2.922	2.233	1.728	1.356	1.075
m1 = 0.0995	812.81	805.13	797.31	789.34	781.16	2.941	2.246	1.735	1.361	1.078
m1 = 0.1499	814.34	806.66	798.81	790.84	782.65	2.96	2.259	1.746	1.368	1.085
m1 = 0.1994	815.82	808.13	800.27	792.28	784.08	2.978	2.268	1.755	1.374	1.087
m1 = 0.2495	817.27	809.58	801.7	793.7	785.5	3.001	2.291	1.764	1.379	1.093

Cc1c(N)cccc1N [2,6-diaminotoluene] + O
[1]
Settings	mass density, 293.15 K [kg/m3]	mass density, 303.15 K [kg/m3]	mass density, 313.15 K [kg/m3]	mass density, 323.15 K [kg/m3]	mass density, 333.15 K [kg/m3]	viscosity, 293.15 K [mPa·s]	viscosity, 303.15 K [mPa·s]	viscosity, 313.15 K [mPa·s]	viscosity, 323.15 K [mPa·s]	viscosity, 333.15 K [mPa·s]
m1 = 0.0501	998.9	996.32	992.86	988.65	983.81	1.032	0.813	0.665	0.557	0.4741
m1 = 0.1002	999.59	996.97	993.49	989.24	984.38	1.053	0.832	0.677	0.563	0.479
m1 = 0.1502	1000.27	997.61	994.1	989.82	984.89	1.066	0.838	0.681	0.568	0.483
m1 = 0.2	1000.92	998.24	994.69	990.38	985.37	1.081	0.85	0.69	0.573	0.487
m1 = 0.2497	1001.57	998.86	995.27	990.93	985.79	1.09	0.854	0.694	0.575	0.488
m1 = 0.2993	1002.21	999.47	995.84	991.46	986.15	1.112	0.87	0.702	0.585	0.495

Cc1ccc(N)cc1N [4-methyl-1,3-benzendiamine] + CCCCO
[1]
Settings	mass density, 293.15 K [kg/m3]	mass density, 303.15 K [kg/m3]	mass density, 313.15 K [kg/m3]	mass density, 323.15 K [kg/m3]	mass density, 333.15 K [kg/m3]	viscosity, 293.15 K [mPa·s]	viscosity, 303.15 K [mPa·s]	viscosity, 313.15 K [mPa·s]	viscosity, 323.15 K [mPa·s]	viscosity, 333.15 K [mPa·s]
m1 = 0.0497	811.16	803.49	795.7	787.74	779.59	2.922	2.237	1.731	1.357	1.076
m1 = 0.0997	812.62	804.93	797.13	789.15	781	2.939	2.246	1.736	1.362	1.079
m1 = 0.1501	814.06	806.37	798.55	790.56	782.41	2.954	2.258	1.746	1.367	1.083
m1 = 0.1999	815.48	807.77	799.94	791.94	783.78	2.972	2.269	1.751	1.372	1.087
m1 = 0.2491	816.86	809.14	801.3	793.29	785.12	2.994	2.279	1.759	1.377	1.091

Cc1ccc(N)cc1N [4-methyl-1,3-benzendiamine] + O
[1]
Settings	mass density, 293.15 K [kg/m3]	mass density, 303.15 K [kg/m3]	mass density, 313.15 K [kg/m3]	mass density, 323.15 K [kg/m3]	mass density, 333.15 K [kg/m3]	viscosity, 293.15 K [mPa·s]	viscosity, 303.15 K [mPa·s]	viscosity, 313.15 K [mPa·s]	viscosity, 323.15 K [mPa·s]	viscosity, 333.15 K [mPa·s]
m1 = 0.0503	998.84	996.26	992.81	988.59	983.71	1.018	0.81	0.662	0.554	0.472
m1 = 0.0998	999.45	996.84	993.36	989.11	984.2	1.035	0.822	0.671	0.562	0.479
m1 = 0.1503	1000.06	997.41	993.9	989.62	984.68	1.051	0.831	0.679	0.571	0.484
m1 = 0.1999	1000.64	997.95	994.42	990.11	985.14	1.069	0.842	0.686	0.578	0.49

CCCCO [butan-1-ol]
[2]
Settings	mass density [kg/m3]	viscosity [mPa·s]
293.15 K	809.69	2.908
303.15 K	802.04	2.225
313.15 K	794.27	1.723
323.15 K	786.32	1.351
333.15 K	778.16	1.071

CCCCO [butan-1-ol] + Cc1c(N)cccc1N
[1], m2 = 0
Settings	mass density [kg/m3]	viscosity [mPa·s]
293.15 K	809.69	2.908
303.15 K	802.04	2.225
313.15 K	794.27	1.723
323.15 K	786.32	1.351
333.15 K	778.16	1.071

CCCCO [butan-1-ol] + Cc1ccc(N)cc1N
[1], m2 = 0
Settings	mass density [kg/m3]	viscosity [mPa·s]
293.15 K	809.69	2.908
303.15 K	802.04	2.225
313.15 K	794.27	1.723
323.15 K	786.32	1.351
333.15 K	778.16	1.071

CCO [ethanol]
[2]
Settings	mass density [kg/m3]	viscosity [mPa·s]
293.15 K	789.56	1.179
303.15 K	780.98	0.972
313.15 K	772.22	0.806
323.15 K	763.29	0.672
333.15 K	754.18	0.564

CCO [ethanol] + Cc1c(N)cccc1N
[1], m2 = 0
Settings	mass density [kg/m3]	viscosity [mPa·s]
293.15 K	789.56	1.179
303.15 K	780.98	0.972
313.15 K	772.22	0.806
323.15 K	763.29	0.672
333.15 K	754.18	0.564

CCO [ethanol] + Cc1ccc(N)cc1N
[1], m2 = 0
Settings	mass density [kg/m3]	viscosity [mPa·s]
293.15 K	789.56	1.179
303.15 K	780.98	0.972
313.15 K	772.22	0.806
323.15 K	763.29	0.672
333.15 K	754.18	0.564

CCCO [propan-1-ol]
[2]
Settings	mass density [kg/m3]	viscosity [mPa·s]
293.15 K	803.86	2.171
303.15 K	795.54	1.696
313.15 K	787.37	1.338
323.15 K	779.01	1.067
333.15 K	770.42	0.859

CCCO [propan-1-ol] + Cc1c(N)cccc1N
[1], m2 = 0
Settings	mass density [kg/m3]	viscosity [mPa·s]
293.15 K	803.86	2.171
303.15 K	795.54	1.696
313.15 K	787.37	1.338
323.15 K	779.01	1.067
333.15 K	770.42	0.859

CCCO [propan-1-ol] + Cc1ccc(N)cc1N
[1], m2 = 0
Settings	mass density [kg/m3]	viscosity [mPa·s]
293.15 K	803.86	2.171
303.15 K	795.54	1.696
313.15 K	787.37	1.338
323.15 K	779.01	1.067
333.15 K	770.42	0.859

O [water]
[2]
Settings	mass density [kg/m3]	viscosity [mPa·s]
293.15 K	–	1.002
303.15 K	–	0.798
313.15 K	–	0.653
323.15 K	988.04	0.547
333.15 K	983.2	0.467

O [water] + Cc1c(N)cccc1N
[1], m2 = 0
Settings	mass density [kg/m3]	viscosity [mPa·s]
293.15 K	–	1.002
303.15 K	–	0.798
313.15 K	–	0.653
323.15 K	988.04	0.547
333.15 K	983.2	0.467

O [water] + Cc1ccc(N)cc1N
[1], m2 = 0
Settings	mass density [kg/m3]
323.15 K	988.04
333.15 K	983.2
